Among the data in US7094781B2, “Sulfamides and their use as endothelin receptor antagonists” (Actelion Pharmaceuticals Ltd., priority 2000, dated 2006) are IC50 values, retold here.

The target in test [1] is T1, human recombinant ETA receptor (Homo sapiens, UniProt P25101).
T1 construct: expressed in transfected cells; host or cells: CHO cells (microsomal membranes)
T1 sequence (P25101 21-427): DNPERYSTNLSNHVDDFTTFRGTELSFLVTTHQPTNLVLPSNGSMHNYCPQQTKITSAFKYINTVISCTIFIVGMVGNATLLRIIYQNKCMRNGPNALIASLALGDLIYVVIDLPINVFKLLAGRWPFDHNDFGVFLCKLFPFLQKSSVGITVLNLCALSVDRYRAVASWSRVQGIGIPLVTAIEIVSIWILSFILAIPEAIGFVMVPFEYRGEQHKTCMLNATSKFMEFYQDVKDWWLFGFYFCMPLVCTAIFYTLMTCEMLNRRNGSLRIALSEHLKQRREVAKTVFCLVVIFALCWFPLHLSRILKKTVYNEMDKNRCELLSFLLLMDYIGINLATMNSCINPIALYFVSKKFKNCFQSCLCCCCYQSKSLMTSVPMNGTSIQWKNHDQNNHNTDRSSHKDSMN
Put plainly: Inhibition of [125I]ET-1 binding to membranes from CHO cells carrying human ETA receptors.

Test [2] addresses T2, human recombinant ETB receptor (Homo sapiens, UniProt P24530).
T2 construct: expressed in transfected cells; host or cells: CHO cells (microsomal membranes)
T2 sequence (P24530 27-442): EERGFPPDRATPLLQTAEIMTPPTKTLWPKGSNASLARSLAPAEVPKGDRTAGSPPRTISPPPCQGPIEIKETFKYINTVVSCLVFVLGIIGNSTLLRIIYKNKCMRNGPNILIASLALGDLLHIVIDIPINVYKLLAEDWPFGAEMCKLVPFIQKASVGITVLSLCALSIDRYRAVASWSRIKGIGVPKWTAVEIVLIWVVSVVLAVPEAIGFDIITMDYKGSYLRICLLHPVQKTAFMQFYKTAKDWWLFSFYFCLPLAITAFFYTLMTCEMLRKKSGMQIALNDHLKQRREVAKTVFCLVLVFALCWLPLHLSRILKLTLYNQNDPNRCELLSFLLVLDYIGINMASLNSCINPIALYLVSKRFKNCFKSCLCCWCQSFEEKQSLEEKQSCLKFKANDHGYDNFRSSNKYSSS
The test can be described thus: Inhibition of [125I]ET-1 binding to membranes from CHO cells carrying human ETB receptors.

By IC50 is commonly meant the midpoint of a concentration-inhibition curve.

Regarding `COc1ccccc1Oc1c(NS(=O)(=O)NCc2ccccc2)nc(-c2ccncc2)nc1OCCOc1ncc(SC)cn1` [Example 74], the IC50 in test [1] is 1.8 nM; in test [2], 164 nM.

Take `CSc1cnc(OCCOc2ncnc(NS(=O)(=O)NCc3ccc4c(c3)OCO4)c2-c2ccc(C)cc2)nc1` [Example 147]: the IC50 in test [1] came to 1.2 nM; in test [2] it was 408 nM.

For the compound `CSc1cnc(OCCOc2nc(-c3ccncc3)nc(NS(=O)(=O)NCc3ccccc3)c2-c2ccc(C)cc2)nc1` [Example 33], the IC50 stood at 3.7 nM in test [1] and 609 nM in test [2].

`COc1cnc(OCCOc2nc(-c3ccncc3)nc(NS(=O)(=O)NCC3CCCCC3)c2Oc2ccccc2OC)nc1` [Example 131]: the IC50 amounted to 3.2 nM in test [1] and 233 nM in test [2].

Consider `COc1ccccc1Oc1c(NS(=O)(=O)NCc2ccccc2)nc(-c2ccnc(-c3nnn[nH]3)c2)nc1OC` [Example 207, benzylsulfamic acid [6-methoxy-5-(2-methoxy-phenoxy)-2-[2-(1H-tetrazol-5-yl)-pyridin-4-yl]-pyrimidin-4-yl]-amide], for which the values for the IC50 in test [1] and in test [2] were 17 nM and over 1000 nM, respectively.

Regarding `COc1ccccc1Oc1c(NS(=O)(=O)NCc2cccs2)nc(-c2ccncc2)nc1OCCOC(=O)Nc1ccccn1` [Example 81], the values for the IC50 in test [1] and in test [2] were 3.6 nM and 274 nM, respectively.

Turning to `COc1ccccc1Oc1c(NS(=O)(=O)NCc2ccccn2)nc(-c2ncccn2)nc1OCCOc1ncc(Br)cn1` [Example 156], the values for the IC50 in test [1] and in test [2] were 18 nM and 409 nM, respectively.

For `CCNS(=O)(=O)Nc1ncnc(OCCOc2ncc(SC)cn2)c1-c1ccc(Br)cc1` [Example 105], the IC50 in test [1] worked out at 0.69 nM; in test [2] it was 203 nM.

For `COc1ccccc1Oc1c(NS(=O)(=O)Nc2ccc(C(C)C)cc2)nc(-c2ccncc2)nc1OCCO` [Example 3, 4-i-propyl-phenyl sulfamic acid-[6-(2-hydroxy-ethoxy)-5-(o-methoxyphenoxy)-2-(4-pyridyl)-pyrimidin-4-yl]-amide], the results for the IC50 in test [1] and in test [2] were 1380 nM and 744 nM, respectively.

Consider `COc1cnc(OCCOc2ncnc(NS(=O)(=O)NCc3ccco3)c2-c2ccc(Cl)cc2)nc1` [Example 23], for which the IC50 in test [1] was determined as 3.6 nM; in test [2], 1590 nM.

Take `COc1ccccc1Oc1c(NS(=O)(=O)NCc2ccccc2)nc(-c2ncccn2)nc1OCCOC(=O)Nc1cnccn1` [Example 42]: the IC50 in test [1] was 3.5 nM; in test [2], 146 nM.

As to `COc1ccccc1Oc1c(NS(=O)(=O)NCc2ccccc2)nc(C2CC2)nc1OCCOc1ncc(SC)cn1` [Example 90], the IC50 turned out to be 7.4 nM in test [1] and 433 nM in test [2].

As to `COc1ccc(CNS(=O)(=O)Nc2nc(-c3ncccn3)nc(OCCOc3ncc(OC)cn3)c2Oc2ccccc2OC)cc1` [Example 49], the concentration for half-maximal inhibition (IC50) in test [1] was found to be 0.82 nM; in test [2], 25.4 nM.

In the case of `COc1ccccc1Oc1c(NS(=O)(=O)NCC2CCCCC2)nc(-c2ccncc2)nc1OCCOc1ncc(Br)cn1` [Example 130], the 50% inhibitory concentration (IC50) in test [1] was determined as 3.7 nM; in test [2] it was 347 nM.

Consider `COc1ccccc1Oc1c(NS(=O)(=O)NCc2ccccc2)ncnc1OCCOC(=O)Nc1ccccn1` [Example 98], for which the IC50 in test [1] was determined as 2.1 nM; in test [2] it was 159 nM.

In the case of `Cc1ccc(-c2c(NS(=O)(=O)NCc3ccccc3)nc(-c3ccncc3)nc2OCCOC(=O)Nc2ccccn2)cc1` [Example 34], the IC50 came out at 23 nM in test [1] and 3270 nM in test [2].

In the case of `COc1ccccc1Oc1c(NS(=O)(=O)NCc2ccc(Cl)cc2)nc(-c2ncccn2)nc1OCCOC(=O)Nc1ccccn1` [Example 57], the values for the IC50 in test [1] and in test [2] were 4.9 nM and 35.8 nM, respectively.

For the compound `C=CCOc1nc(-c2ccncc2)nc(NS(=O)(=O)Nc2ccc(C(C)C)cc2)c1Oc1ccccc1OC` [Example 2, 4-i-propyl-phenyl sulfamic acid-[6-allyloxy-5-(o-methoxyphenoxy)-2-(4-pyridyl)-pyrimidin-4-yl]-amide], the IC50 in test [1] stood at 2190 nM; in test [2], 8740 nM.

For the compound `COc1ccccc1Oc1c(NS(=O)(=O)Nc2ccc(C)cn2)nc(-c2ccncc2)nc1OC` [Example 8, 5-methyl-pyridine-2-sulfamic acid-[6-methoxy-5-(o-methoxy-phenoxy)-2-(4-pyridyl)-4-pyrimidinyl]-amide], the IC50 in test [1] is 1160 nM; in test [2] it was over 10000 nM.

As to `COc1ccc(Cl)c(Oc2c(NS(=O)(=O)NCc3ccc4c(c3)OCO4)ncnc2OCCOc2ncc(Br)cn2)c1` [Example 151], the IC50 is 0.77 nM in test [1] and 57 nM in test [2].

For `CCNS(=O)(=O)Nc1nc(-c2ccncc2)nc(OC)c1Oc1ccccc1OC` [Example 7, ethyl sulfamic acid-[6-methoxy-5-(o-methoxy-phenoxy)-2-(4-pyridyl)-pyrimidin-4-yl]-amide], the IC50 was found to be 1240 nM in test [1] and 9470 nM in test [2].

Consider `COc1ccccc1Oc1c(NS(=O)(=O)NCc2ccccn2)nc(-c2ncccn2)nc1OCCOc1nccs1` [Example 157], for which the IC50 is 42.2 nM in test [1] and 954 nM in test [2].

Consider `COc1cnc(OCCOc2ncnc(NS(=O)(=O)NCc3ccc4c(c3)OCO4)c2-c2ccc(C)cc2)nc1` [Example 146], for which the IC50 in test [1] turned out to be 5 nM; in test [2] it was 514 nM.

For the compound `CSc1cnc(OCCOc2ncnc(NS(=O)(=O)NC3CC3)c2-c2ccc(Br)cc2)nc1` [Example 197], the IC50 in test [1] was 1.16 nM; in test [2], 418 nM.

On to `O=S(=O)(NCc1ccccc1)Nc1nc(-c2ncccn2)nc(OCCOc2ncc(Br)cn2)c1-c1ccccc1` [Example 26], for which the IC50 in test [1] is 54 nM; in test [2], over 10000 nM.

Take `COc1ccccc1Oc1c(NS(=O)(=O)NCc2ccc(Cl)cc2)nc(-c2ncccn2)nc1OCCOc1ncc(Br)cn1` [Example 56]: the IC50 in test [1] came out at 6.9 nM; in test [2] it was 164 nM.

Turning to `COc1cnc(OCCOc2nc(-c3ncccn3)nc(NS(=O)(=O)NCC3CC3)c2Oc2ccccc2OC)nc1` [Example 127], the results for the IC50 in test [1] and in test [2] were 7.3 nM and 87 nM, respectively.

Take `COc1cnc(OCCOc2ncnc(NS(=O)(=O)NCC3CC3)c2-c2ccc(Cl)cc2)nc1` [Example 113]: the IC50 in test [1] came out at 4.26 nM; in test [2], 581 nM.

As to `COc1ccccc1Oc1c(NS(=O)(=O)NCc2ccccc2)nc(S(C)(=O)=O)nc1OCCO` [Example 204, Benzylsulfamic acid [6-(2-hydroxy-ethoxy)-2-methanesulfonyl-5-(2-methoxy-phenoxy)-pyrimidin-4-yl]-amide], the values for the IC50 in test [1] and in test [2] were 390 nM and 1050 nM, respectively.

For `COc1ccccc1Oc1c(NS(=O)(=O)Nc2ccc(C(C)(C)C)cc2)nc(-c2ccncc2)nc1OCCO` [Example 10, 4-t-butyl-phenyl sulfamic acid-[6-(2-hydroxy-ethoxy)-5-(o-methoxy-phenoxy)-2-(4-pyridyl)-4-pyrimidinyl]-amide], the IC50 in test [1] is 2870 nM; in test [2] it was 193 nM.

Take `COc1cnc(OCCOc2ncnc(NS(=O)(=O)NCc3ccccc3)c2-c2ccc(Cl)cc2)nc1` [Example 15]: the IC50 turned out to be 18.5 nM in test [1] and 2160 nM in test [2].

Take `COc1cnc(OCCOc2nc(-c3ncccn3)nc(NS(=O)(=O)N(C)Cc3ccccc3)c2Oc2ccccc2OC)nc1` [Example 188]: the IC50 in test [1] turned out to be 11 nM; in test [2], 290 nM.

Consider `COc1ccccc1Oc1c(NS(=O)(=O)NCc2ccco2)nc(-c2ncccn2)nc1OCCOC(=O)Nc1cnccn1` [Example 61], for which the IC50 in test [1] is 1.6 nM; in test [2], 200 nM.

Turning to `COc1ccccc1Oc1c(NS(=O)(=O)NCCc2ccccc2)nc(-c2ccncc2)nc1OCCOC(=O)Nc1ccccc1` [Example 181], the IC50 in test [1] came out at 14.3 nM; in test [2] it was 224 nM.

For `CCCCNS(=O)(=O)Nc1ncnc(OCCOc2ncc(Br)cn2)c1-c1ccc(Cl)cc1` [Example 117], the IC50 worked out at 0.45 nM in test [1] and 518 nM in test [2].

For the compound `COc1cnc(OCCOc2ncnc(NS(=O)(=O)NCc3ccc4c(c3)OCO4)c2Oc2cc(OC)ccc2Cl)nc1` [Example 152], the IC50 was 1.1 nM in test [1] and 79 nM in test [2].

In the case of `COc1ccccc1Oc1c(NS(=O)(=O)NCc2ccccn2)nc(C2CC2)nc1OCCOc1ncc(Br)cn1` [Example 84], the IC50 in test [1] came out at 37 nM; in test [2], 574 nM.

Turning to `COc1ccc(CNS(=O)(=O)Nc2ncnc(OCCOc3ncc(Br)cn3)c2Oc2cc(OC)ccc2Cl)cc1` [Example 163], the IC50 in test [1] is 0.44 nM; in test [2] it was 80 nM.

As to `COc1ccccc1Oc1c(NS(=O)(=O)NCCc2ccccc2)nc(-c2ccncc2)nc1OCCOc1ncc(Br)cn1` [Example 182], the IC50 in test [1] amounted to 29 nM; in test [2], 1870 nM.

Regarding `COc1cnc(OCCOc2ncnc(NS(=O)(=O)N(C)Cc3ccccc3)c2-c2ccc(Cl)cc2)nc1` [Example 194], the IC50 is 9.5 nM in test [1] and over 1000 nM in test [2].
